Measurements taken from PubChem BioAssay (NCI).
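Compound exposure: 48 hours, 5 concentrations, 96-well plates. TGI: concentration producing complete growth inhibition.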

Columns and labels:
Assay in all cases: growth of human tumour cells (NCI), 48 h
SK-MEL-2 melanoma = tested on: SK-MEL-2 melanoma
OVCAR-8 ovarian = tested on: OVCAR-8 ovarian
NCI/ADR-RES ovarian = tested on: NCI/ADR-RES ovarian
HT29 colon = tested on: HT29 colon
MALME-3M melanoma = tested on: MALME-3M melanoma
SK-MEL-28 melanoma = tested on: SK-MEL-28 melanoma
NCI-H522 lung = tested on: NCI-H522 lung
UACC-257 melanoma = tested on: UACC-257 melanoma
KM12 colon = tested on: KM12 colon
786-0 renal = tested on: 786-0 renal
SF-539 CNS = tested on: SF-539 CNS
TK-10 renal = tested on: TK-10 renal
SNB-19 CNS = tested on: SNB-19 CNS
HCT-15 colon = tested on: HCT-15 colon
A549 NSCLC = tested on: A549 NSCLC
SN12C renal = tested on: SN12C renal
MDA-MB-435 = tested on: MDA-MB-435
UO-31 renal = tested on: UO-31 renal
HOP-92 NSCLC = tested on: HOP-92 NSCLC
PC-3 prostate = tested on: PC-3 prostate
MCF7 breast = tested on: MCF7 breast
K-562 leukemia = tested on: K-562 leukemia
HCT-116 colon = tested on: HCT-116 colon
SK-MEL-5 melanoma = tested on: SK-MEL-5 melanoma
LOX IMVI melanoma = tested on: LOX IMVI melanoma
MDA-MB-231 breast = tested on: MDA-MB-231 breast
HOP-62 NSCLC = tested on: HOP-62 NSCLC
ACHN renal = tested on: ACHN renal
T-47D breast = tested on: T-47D breast
UACC-62 melanoma = tested on: UACC-62 melanoma
IGROV1 ovarian = tested on: IGROV1 ovarian
HCC-2998 colon = tested on: HCC-2998 colon
A498 renal = tested on: A498 renal
RPMI-8226 leukemia = tested on: RPMI-8226 leukemia
U251 CNS = tested on: U251 CNS
NCI-H460 lung = tested on: NCI-H460 lung
CAKI-1 renal = tested on: CAKI-1 renal
MDA-N = tested on: MDA-N
M14 melanoma = tested on: M14 melanoma
OVCAR-5 ovarian = tested on: OVCAR-5 ovarian
HL-60(TB) leukemia = tested on: HL-60(TB) leukemia
HS 578T breast = tested on: HS 578T breast
OVCAR-3 ovarian = tested on: OVCAR-3 ovarian
OVCAR-4 ovarian = tested on: OVCAR-4 ovarian
BT-549 breast = tested on: BT-549 breast
SNB-75 CNS = tested on: SNB-75 CNS
SW-620 colon = tested on: SW-620 colon
CCRF-CEM leukemia = tested on: CCRF-CEM leukemia
EKVX NSCLC = tested on: EKVX NSCLC
SK-OV-3 ovarian = tested on: SK-OV-3 ovarian
DU-145 prostate = tested on: DU-145 prostate
SF-295 CNS = tested on: SF-295 CNS
SF-268 CNS = tested on: SF-268 CNS
NCI-H23 lung = tested on: NCI-H23 lung
RXF 393 renal = tested on: RXF 393 renal
MOLT-4 leukemia = tested on: MOLT-4 leukemia
NCI-H226 lung = tested on: NCI-H226 lung
COLO 205 colon = tested on: COLO 205 colon
SR leukemia = tested on: SR leukemia

Measured: TGI

O=C(O)/C(=C/c1ccccc1)c1ccccc1
> 100 µM: SK-MEL-2 melanoma | OVCAR-8 ovarian | NCI/ADR-RES ovarian | HT29 colon | MALME-3M melanoma | SK-MEL-28 melanoma | NCI-H522 lung | UACC-257 melanoma | KM12 colon | 786-0 renal | SF-539 CNS | TK-10 renal | SNB-19 CNS | HCT-15 colon | A549 NSCLC | SN12C renal | MDA-MB-435 | UO-31 renal | HOP-92 NSCLC | PC-3 prostate | MCF7 breast | K-562 leukemia | HCT-116 colon | SK-MEL-5 melanoma | LOX IMVI melanoma | MDA-MB-231 breast | HOP-62 NSCLC | ACHN renal | T-47D breast | UACC-62 melanoma | IGROV1 ovarian | HCC-2998 colon | A498 renal | RPMI-8226 leukemia | U251 CNS | NCI-H460 lung | CAKI-1 renal | MDA-N | M14 melanoma | OVCAR-5 ovarian | HL-60(TB) leukemia | HS 578T breast | OVCAR-3 ovarian | OVCAR-4 ovarian | BT-549 breast | SNB-75 CNS | SW-620 colon | CCRF-CEM leukemia | EKVX NSCLC | SK-OV-3 ovarian | DU-145 prostate | SF-295 CNS | SF-268 CNS | NCI-H23 lung | RXF 393 renal | MOLT-4 leukemia

CCOC(=O)C1CSCCSC1
57.6 µM: NCI-H460 lung
> 100 µM: OVCAR-8 ovarian | NCI/ADR-RES ovarian | HT29 colon | NCI-H226 lung | SK-MEL-28 melanoma | NCI-H522 lung | UACC-257 melanoma | KM12 colon | TK-10 renal | SNB-19 CNS | HCT-15 colon | A549 NSCLC | COLO 205 colon | SN12C renal | MDA-MB-435 | UO-31 renal | HOP-92 NSCLC | PC-3 prostate | MCF7 breast | K-562 leukemia | HCT-116 colon | SK-MEL-5 melanoma | LOX IMVI melanoma | MDA-MB-231 breast | ACHN renal | HCC-2998 colon | A498 renal | U251 CNS | SR leukemia | MDA-N | HS 578T breast | SNB-75 CNS | SW-620 colon | CCRF-CEM leukemia | SK-OV-3 ovarian | DU-145 prostate | SF-295 CNS | SF-268 CNS | NCI-H23 lung | RXF 393 renal | MOLT-4 leukemia

CC(CN(C)C)C(C#N)(c1ccccc1)c1ccccc1 (stereo unspecified)
> 100 µM: SK-MEL-2 melanoma | OVCAR-8 ovarian | NCI/ADR-RES ovarian | HT29 colon | MALME-3M melanoma | NCI-H226 lung | SK-MEL-28 melanoma | NCI-H522 lung | UACC-257 melanoma | KM12 colon | 786-0 renal | SF-539 CNS | TK-10 renal | SNB-19 CNS | HCT-15 colon | A549 NSCLC | COLO 205 colon | SN12C renal | MDA-MB-435 | UO-31 renal | HOP-92 NSCLC | PC-3 prostate | MCF7 breast | K-562 leukemia | HCT-116 colon | SK-MEL-5 melanoma | LOX IMVI melanoma | MDA-MB-231 breast | HOP-62 NSCLC | ACHN renal | T-47D breast | UACC-62 melanoma | IGROV1 ovarian | HCC-2998 colon | A498 renal | RPMI-8226 leukemia | U251 CNS | NCI-H460 lung | CAKI-1 renal | MDA-N | M14 melanoma | OVCAR-5 ovarian | HL-60(TB) leukemia | HS 578T breast | OVCAR-3 ovarian | OVCAR-4 ovarian | BT-549 breast | SNB-75 CNS | SW-620 colon | CCRF-CEM leukemia | EKVX NSCLC | SK-OV-3 ovarian | DU-145 prostate | SF-295 CNS | SF-268 CNS | NCI-H23 lung | RXF 393 renal | MOLT-4 leukemia
